# Reference: patent US10975114B2, “Bis 2′-5′-RR-(3′F-A)(3′F-A) cyclic dinucleotide compound and uses thereof” (ADURO BIOTECH, INC., priority 2017, dated 2021)
# How the values were obtained:
# wild type hSTING = molecular target: T1, wild type hSTING (Homo sapiens, UniProt Q86WV6, H232R); test: DSF Tm shift, purified hSTING WT (AA140-379); assay type: binding; settings: 1 mg/ml STING AA140-379, ligand 1 mM
# T1 construct: 6xHis-SUMO (with TEV site) (N, cleaved yes); made in house; host or cells: Rosetta2 (DE3) E. coli
# Experimental: (§1) Cells were grown in lysogeny broth at 37° C. until a […] absorbance of 0.6 was reached. […] Cells were lysed using an S-450D sonifier (Emmerson industrial) on ice. […] Protein was aliquoted, flash frozen in liquid nitrogen and stored at −80° C. until use.
# (§2) The protein is heated in the presence of a dye that binds to and fluoresces in hydrophobic environments. The protein is thermally denatured by heating resulting in increased dye binding to the unfolded protein and fluorescence. The temperature midpoint (Tm) of a proteins denaturation is established by calculating the half maximal value of the denaturation curve. The temperature midpoint of the protein in the presence of a ligand is directly related to the affinity of the ligand for the protein and therefore its ability to stabilize the protein at higher temperatures.
# HAQ allele hSTING = molecular target: T2, HAQ allele hSTING (Homo sapiens, UniProt Q86WV6, G230A/H232R/R293Q); test: DSF Tm shift, purified hSTING HAQ allele (AA140-379); assay type: binding; settings: 1 mg/ml STING AA140-379, ligand 1 mM
# T2 construct: 6xHis-SUMO (with TEV site) (N, cleaved yes); made in house; host or cells: Rosetta2 (DE3) E. coli
# Experimental: as §1, §2
# REF allele hSTING = molecular target: T3, REF allele hSTING (Homo sapiens, UniProt Q86WV6); test: DSF Tm shift, purified hSTING REF allele (AA140-379); assay type: binding; settings: 1 mg/ml STING AA140-379, ligand 1 mM
# T3 construct: 6xHis-SUMO (with TEV site) (N, cleaved yes); made in house; host or cells: Rosetta2 (DE3) E. coli
# Experimental: as §1, §2
# [1] = test system: THP1 cells (hSTING HAQ allele); test: THP1-Dual IRF-3 luciferase reporter assay without digitonin; assay type: cell-based, human; settings: 30 min compound incubation, overnight readout of secreted luciferase
# Experimental: Cells were washed with fresh media and incubated for 30 min at 37° C. with 5% CO2 with compounds in 3-fold titration steps from 2,000 to 0.0338 μM in PB buffer (50 mM 4-(2-hydroxyethyl)-1-piperazineethanesulfonic acid, 100 mM KCl, 3 mM MgCl2, 0.1 mM dithiothreitol, 85 mM sucrose, 1 mM ATP, 0.1 mM GTP and 0.2% bovine serum albumin). After 30 minutes, cells were washed and fresh RPMI media containing 10% FBS was added, and cells were incubated at 37° C. with 5% CO2. Cell culture supernatants from each sample were collected after overnight incubation, and 10 μl of the cell culture supernatants was added to 50 μl QUANTI-Luc reagent (Invivogen). Type I interferon activation was determined by measuring secreted luciferase levels on a SpectraMax M3 spectrophotometer (Molecular Devices). The EC50 value for the same compounds as tested in Example 4 was determined from the dose-response curve for the 10 concentrations from the serial dilution of the compounds in this assay.
# 4T1 mammary carcinoma [2] = test: 4T1 mammary carcinoma dual-flank model, single intratumoral injection; assay type: in vivo, BALB/c mice
# Experimental: To assess the ability of 2′2′-RR-(3′F-A)(3′F-A) to promote anti-tumor immunity in a murine tumor model, 6-8 week old female BALB/c mice (n=8/group) were implanted in both the left and the right flanks with 4T1 mammary carcinoma cells (2×10^5 cells in 100 μL PBS). Mice were treated with 2′2′-RR-(3′F-A)(3′F-A) at 0.1, 1, 10 and 100 μg in a total volume of 40 μL HBSS and compared to Hank's Balanced Salt Solution (HBSS) vehicle control. Compound was administered when tumors reached a volume of approximately 40-50 mm^3 on day 8 post tumor implantation (indicated by dotted line on the x-axis in tumor growth graphs). The compound was administered by a single […] injection into the center of the tumor (intratumoral, IT) using a 27 gauge needle. Tumors were measured twice weekly.
# 4T1 mammary carcinoma [3] = test: AH1-specific T cells in distal 4T1 tumor (TILs), with or without anti-PD-1; assay type: in vivo, BALB/c mice
# Experimental: To assess the ability of 2′2′-RR-(3′F-A)(3′F-A) to promote anti-tumor immunity in murine tumor models in combination with an antagonistic anti-PD-1 antibody, 6-8 week old female BALB/c mice (n=8/group) were implanted in both the left and the right flanks with 4T1 mammary carcinoma cells (2×10^5 cells in 100 aL PBS, day 0). Mice were treated with vehicle alone or 1 μg 2′2′-RR-(3′F-A)(3′F-A) in a total volume of 40 aL HBSS by IT injection using a 27 gauge needle when tumors reached a volume of approximately 40-50 mm^3 on day 8 post tumor implantation (indicated by dotted line on the x-axis in tumor growth graphs). Mice were given intraperitoneal (IP) injections of 200 μg control IgG or anti-PD-1 (clone RMP1-14, BioXCell) beginning on the day of 2′2′-RR-(3′F-A)(3′F-A) treatment and then continuing twice per week throughout the duration of the experiment. […] Tumors were measured twice weekly.
# To directly quantify the effect of combining 2′2′-RR-(3′F-A)(3′F-A) with anti-PD-1 on tumor-specific T cells, a cohort of mice from Example 9 were euthanized on day 7 post IT injection and non-injected tumors dissociated into a single cell suspension. […] Data were acquired using a LSRFortessa X-20 cytometer with FACSDiva software (BD) and analyzed with FlowJo software (Tree Star).
# T1 sequence (Q86WV6 140-379 H232R): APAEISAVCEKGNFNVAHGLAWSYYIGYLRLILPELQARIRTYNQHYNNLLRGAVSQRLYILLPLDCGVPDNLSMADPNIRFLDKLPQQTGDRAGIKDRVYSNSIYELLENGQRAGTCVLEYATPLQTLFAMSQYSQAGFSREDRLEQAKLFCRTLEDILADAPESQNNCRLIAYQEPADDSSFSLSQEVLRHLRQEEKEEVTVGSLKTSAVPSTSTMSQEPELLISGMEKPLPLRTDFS
# T3 sequence (Q86WV6 140-379): as the sequence (Q86WV6 140-379 H232R) above, with R93H counted along it
# T2 sequence (Q86WV6 140-379 G230A/H232R/R293Q): as the sequence (Q86WV6 140-379 H232R) above, with G91A, R154Q counted along it
compound,measurement,setting,value
"Nc1ncnc2c1ncn2[C@@H]1O[C@@H]2CO[P@@](=O)(S)O[C@@H]3[C@H](F)[C@@H](CO[P@@](=O)(S)O[C@@H]1[C@@H]2F)O[C@H]3n1cnc2c(N)ncnc21 [2′2′-RR-(3′F-A)(3′F-A), (1S,3R,6R,8R,9S,11R,14R,16R,17R,18R)-8,16-bis(6-amino-9H-purin-9-yl)-17,18-difluoro-3,11-dimercapto-2,4,7,10,12,15-hexaoxa-3,11-diphosphatricyclo[12.2.1.1^6,9]octadecane 3,11-dioxide]",hSTING Tm Shift WT,wild type hSTING,13.9 °C
same,hSTING Tm Shift HAQ,HAQ allele hSTING,19.7 °C
same,hSTING Tm Shift REF,REF allele hSTING,12.5 °C
same,EC50,[1],16.6 µM
same,EC50,"[1]; Homo sapiens, THP-1, 0.5 h",< 20 µM
same,cures of the distal tumor,"4T1 mammary carcinoma [2]; 10 μg single IT dose, n=8",37.5%
same,cures of the primary tumor,"4T1 mammary carcinoma [2]; 10 μg single IT dose, n=8",100%
same,tumor inhibition in primary (injected) and distal (non-injected) flank tumor,"4T1 mammary carcinoma [2]; single IT injection 0.1, 1, 10, 100 μg, compared to HBSS",potent dose-dependent tumor inhibition
same,tumor-specific T cell response in distal tumor,"4T1 mammary carcinoma [3]; 1 μg IT alone, TILs day 7 post IT injection",measurable above background
same,polyfunctional IFNγ+TNFα+ CD8 T cells specific for the AH1 peptide in the tumor microenvironment,"4T1 mammary carcinoma [3]; 1 μg IT combined with anti-PD-1, TILs of non-injected tumor, day 7 post IT injection",statistically significant increase
